Source: US20250002471A1 (Gilead Sciences, Inc., priority 2020, published 2025)

Key:
[1] = target: T1, TLR7 (Homo sapiens, UniProt Q9NYK1); experiment: Human PBMC cell-based assay, TLR7 agonist GS-986 stimulation, cytokine (IL-6 and IFNα) readout; settings: human PBMCs, GS-986 400 nM, 6 hours; Table 26; read-out: TLR-7 EC50
T1 construct: lymphocytes, monocytes and dendritic cells that express TLR7, TLR8 and TLR9; endogenous in cells; host or cells: human PBMCs from healthy donors
T1 sequence (Q9NYK1 27-1049): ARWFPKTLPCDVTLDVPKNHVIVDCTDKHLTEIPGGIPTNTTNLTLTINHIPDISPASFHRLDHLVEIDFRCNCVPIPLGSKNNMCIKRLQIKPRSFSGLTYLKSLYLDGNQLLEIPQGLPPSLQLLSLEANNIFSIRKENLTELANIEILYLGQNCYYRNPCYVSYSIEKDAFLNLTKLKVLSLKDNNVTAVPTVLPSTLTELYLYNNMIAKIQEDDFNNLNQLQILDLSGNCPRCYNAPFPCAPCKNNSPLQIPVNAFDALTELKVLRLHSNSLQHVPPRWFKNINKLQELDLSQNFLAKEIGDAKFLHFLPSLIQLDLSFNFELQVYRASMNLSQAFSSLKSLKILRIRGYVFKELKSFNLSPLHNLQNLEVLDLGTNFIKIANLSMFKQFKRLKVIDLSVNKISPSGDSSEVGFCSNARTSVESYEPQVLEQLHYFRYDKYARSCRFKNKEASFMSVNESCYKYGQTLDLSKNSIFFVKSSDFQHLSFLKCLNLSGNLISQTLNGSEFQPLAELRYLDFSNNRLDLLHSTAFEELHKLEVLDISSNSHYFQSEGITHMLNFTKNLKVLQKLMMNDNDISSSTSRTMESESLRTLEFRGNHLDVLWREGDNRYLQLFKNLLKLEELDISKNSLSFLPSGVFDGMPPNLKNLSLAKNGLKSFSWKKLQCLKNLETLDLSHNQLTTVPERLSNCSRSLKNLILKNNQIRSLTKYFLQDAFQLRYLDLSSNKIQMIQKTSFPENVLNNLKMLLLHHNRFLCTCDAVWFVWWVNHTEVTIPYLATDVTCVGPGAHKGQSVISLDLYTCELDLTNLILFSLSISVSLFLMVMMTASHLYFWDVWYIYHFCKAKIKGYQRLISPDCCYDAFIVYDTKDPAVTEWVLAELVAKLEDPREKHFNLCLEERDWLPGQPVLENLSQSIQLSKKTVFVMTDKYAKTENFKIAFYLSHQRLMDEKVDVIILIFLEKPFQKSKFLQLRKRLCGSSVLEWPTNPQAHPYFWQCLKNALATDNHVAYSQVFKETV
Summary of the method: (§1)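 Readout is IL-6 and IFNα in supernatants, quantified by electrochemiluminescence, with EC50 from a sigmoidal fit of cytokine versus concentration. Healthy-donor human PBMCs, 100,000 per well, got antagonist for 1 h at 37 °C, then 6 h agonist exposure: TLR7 via GS-986 at 400 nM final, TLR9 via ODN-2216 at 3 μM final.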

[2] = target: T2, TLR8 (Homo sapiens, UniProt Q9NR97); experiment: TLR8 human PBMC cell-based assay, TLR8 agonist Compound A stimulation, cytokine (TNFa and IL12p40) readout; settings: human PBMCs, Compound A 800 nM, 6 hours; Table 26; read-out: TLR-8 EC50
T2 construct: lymphocytes, monocytes and dendritic cells that express TLR7, TLR8 and TLR9; endogenous in cells; host or cells: human PBMCs from healthy donors
T2 sequence (Q9NR97 27-1041): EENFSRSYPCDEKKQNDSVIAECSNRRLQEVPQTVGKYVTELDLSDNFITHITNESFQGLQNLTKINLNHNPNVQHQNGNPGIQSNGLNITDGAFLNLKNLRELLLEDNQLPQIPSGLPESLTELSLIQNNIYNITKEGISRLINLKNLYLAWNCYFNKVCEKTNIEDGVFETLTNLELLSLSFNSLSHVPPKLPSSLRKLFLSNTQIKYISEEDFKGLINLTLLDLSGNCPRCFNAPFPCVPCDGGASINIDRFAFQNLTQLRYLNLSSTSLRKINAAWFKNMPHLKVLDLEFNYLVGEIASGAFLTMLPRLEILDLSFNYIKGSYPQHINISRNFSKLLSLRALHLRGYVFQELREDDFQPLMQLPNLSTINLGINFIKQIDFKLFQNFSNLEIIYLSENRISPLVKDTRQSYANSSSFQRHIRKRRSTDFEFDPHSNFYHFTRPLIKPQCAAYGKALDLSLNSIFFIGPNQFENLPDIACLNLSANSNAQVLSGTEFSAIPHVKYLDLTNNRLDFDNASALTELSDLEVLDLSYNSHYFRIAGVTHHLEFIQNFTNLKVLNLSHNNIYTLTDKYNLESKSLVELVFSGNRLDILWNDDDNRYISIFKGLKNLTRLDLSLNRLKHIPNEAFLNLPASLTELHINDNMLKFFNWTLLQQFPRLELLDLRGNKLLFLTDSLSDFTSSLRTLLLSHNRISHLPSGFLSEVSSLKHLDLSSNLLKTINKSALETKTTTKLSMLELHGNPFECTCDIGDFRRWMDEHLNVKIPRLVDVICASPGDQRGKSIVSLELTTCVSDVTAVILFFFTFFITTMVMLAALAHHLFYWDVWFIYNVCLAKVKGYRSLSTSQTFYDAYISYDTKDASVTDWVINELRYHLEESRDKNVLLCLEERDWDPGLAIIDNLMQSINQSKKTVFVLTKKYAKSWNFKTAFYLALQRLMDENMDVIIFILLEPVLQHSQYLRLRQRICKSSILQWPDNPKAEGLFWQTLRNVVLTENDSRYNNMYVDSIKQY
Method: Cryopreserved human PBMCs from healthy donors were thawed and resuspended in RPMI-1640 media with L-glutamine (Corning) supplemented with 10% Fetal Bovine Serum (Hyclone) and 1X Penicillin-Streptomycin (Corning). After counting, the cell density was adjusted to 2 million cells/ml and incubated for 1 hour at 37° C., 5% CO2 for recovery. Following the recovery, the cells were plated by adding 50p per well (100,000 cells) to 384-well cell culture plates (Greiner) containing 250nl of test antagonists in 100% DMSO per well, in a 10 points dose response in quadruplicates. PBMCs were incubated in the presence of antagonists for one hour at 37° C., 5% CO2 before being stimulated with TLR8 agonist. Compound A (Gilead Sciences, U.S. Pat. No. 10,285,990) was used as the TLR8 agonist at a final concentration of 800 nM. PBMCs were incubated in the presence of antagonist and the TLR8 agonist for an additional 6 hours at 37° C., […]. At the end of the incubation, the cell culture plates were centrifuged at 500 g for 5 min, and the cell culture supernatant was collected. The level of cytokines (TNFa and IL12p40) in the supernatant was measured by electrochemiluminescence immunoassays (Mesoscale Discovery) following manufacturer's recommended protocols. The level of cytokine measured was plotted against the antagonist concentration and fitted to a sigmoidal function to determine the EC50, which are shown below in Table 11.

[3] = target: T3, TLR9 (Homo sapiens, UniProt Q9NR96); experiment: Human PBMC cell-based assay, TLR9 agonist ODN-2216 stimulation, cytokine (IL-6 and IFNα) readout; settings: human PBMCs, ODN-2216 3 μM, 6 hours; Table 26; read-out: TLR-9 EC50
T3 construct: lymphocytes, monocytes and dendritic cells that express TLR7, TLR8 and TLR9; endogenous in cells; host or cells: human PBMCs from healthy donors
T3 sequence (Q9NR96 26-1032): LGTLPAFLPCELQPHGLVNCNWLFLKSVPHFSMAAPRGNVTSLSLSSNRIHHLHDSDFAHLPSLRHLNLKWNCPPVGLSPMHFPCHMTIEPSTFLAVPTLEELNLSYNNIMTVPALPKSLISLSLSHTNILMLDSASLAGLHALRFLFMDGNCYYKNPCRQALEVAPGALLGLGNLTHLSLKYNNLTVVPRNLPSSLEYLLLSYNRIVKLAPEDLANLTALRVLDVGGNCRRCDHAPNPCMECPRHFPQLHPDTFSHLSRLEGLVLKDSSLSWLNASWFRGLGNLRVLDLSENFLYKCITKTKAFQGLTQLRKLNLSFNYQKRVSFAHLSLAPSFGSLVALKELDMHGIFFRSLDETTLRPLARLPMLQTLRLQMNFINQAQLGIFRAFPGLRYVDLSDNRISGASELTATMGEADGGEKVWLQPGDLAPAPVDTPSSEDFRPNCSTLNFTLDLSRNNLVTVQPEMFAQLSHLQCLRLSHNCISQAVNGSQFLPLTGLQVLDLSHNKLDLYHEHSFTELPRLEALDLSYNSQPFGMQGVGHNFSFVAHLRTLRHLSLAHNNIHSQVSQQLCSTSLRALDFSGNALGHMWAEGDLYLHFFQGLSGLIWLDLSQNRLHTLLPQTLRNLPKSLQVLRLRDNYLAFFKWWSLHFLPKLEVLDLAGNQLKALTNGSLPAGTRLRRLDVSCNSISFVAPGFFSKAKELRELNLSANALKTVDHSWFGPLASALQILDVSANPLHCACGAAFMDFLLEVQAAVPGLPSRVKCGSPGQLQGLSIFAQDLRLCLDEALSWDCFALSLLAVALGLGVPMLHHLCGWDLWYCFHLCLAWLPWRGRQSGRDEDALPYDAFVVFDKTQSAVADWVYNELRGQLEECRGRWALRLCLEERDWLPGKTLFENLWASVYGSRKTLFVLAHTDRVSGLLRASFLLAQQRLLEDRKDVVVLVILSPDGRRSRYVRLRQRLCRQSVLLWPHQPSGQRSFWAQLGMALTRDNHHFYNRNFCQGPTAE
Summary of the method: as §1

Structure (SMILES) | EC50 [1] [nM] | EC50 [2] [nM] | EC50 [3] [nM]
Cc1c(-c2cc(C)c3ncnn3c2)[nH]c2cc(-c3nnc(C4CCNCC4)o3)ccc12 [Example 191] | 49.1 | 269 | 
Cc1c(-c2cc(C)c3ncnn3c2)[nH]c2cc(-c3nnc(N4CCNCC4)o3)ccc12 [Example 192] | 65.6 | 403 | 
Cc1cc(-c2[nH]c3cc(-c4ccc5ncn(C6CCNCC6)c5c4)ccc3c2C)cc(C)n1 [Example 166] | 144 |  | 522
Cc1cc(-c2[nH]c3cc(-c4ccc5cccnc5c4)ccc3c2C)cc(C)n1 [Example 47] | 652 |  | 400
Cc1cc(-c2[nH]c3cc(-c4ccc(C(=O)N5CCC(N)CC5)cc4)ccc3c2C)cc(C)n1 [Example 125] | 74.8 |  | 98.3
Cc1cc(-c2[nH]c3cc(-c4nc(C5CCNCC5)cs4)ccc3c2C)cc(C)n1 [Example 186, 2-(2-(2,6-dimethylpyridin-4-yl)-3-methyl-1H-indol-6-yl)-4-(piperidin-4-yl)thiazole] | 121 |  | 225
Cc1cc(-c2[nH]c3cc(-c4ccc(C(=O)N5CC6CNCC6C5)cc4)ccc3c2C)cc(C)n1 (stereo not drawn) [Example 126] | 48 |  | 294
Cc1cc(-c2[nH]c3cc(C4CCNC4)ccc3c2C)cc(C)n1 (stereo not drawn) [Example 54] | 1390 |  | 69.4
Cc1cc(-c2[nH]c3cc(C(=O)N4CCC5(CCNCC5)CC4)ccc3c2C)cc(C)n1 [Example 180] | > 1000 |  | 835
Cc1cc(-c2[nH]c3cc(-c4ccc(N5CCN(CC(F)(F)F)CC5)nc4)ccc3c2C)cc(C)n1 [Example 142] | > 1000 |  | 1370

Stronger by EC50 [1], values ahead:

EC50 [1] [nM] | EC50 [2] [nM] | EC50 [3] [nM] | Structure (SMILES)
0.11 | 5.16 |  | CCc1c(-c2cc(C)c3ncnn3c2)[nH]c2cc(-c3ccc(N4CCN(CCO)CC4)nc3)ccc12 [Example 173]
0.15 | 8.15 |  | Cc1cc(-c2[nH]c3cc(-c4ccc(N5CCNCC5)nc4)ccc3c2C2CC2)cn2ncnc12 [Example 175]
4.8 |  | 189 | Cc1cc(-c2[nH]c3cc(-c4ccc(N5CCNCC5)nc4)ccc3c2C2CC2)cc(C)n1 [Example 63, 3-cyclopropyl-2-(2,6-dimethylpyridin-4-yl)-6-(6-(piperazin-1-yl)pyridin-3-yl)-1H-indole]
5.1 |  | 10.6 | Cc1cc(-c2[nH]c3cc(-c4ccc(C5=CCNCC5)nc4)ccc3c2C)cc(C)n1 [Example 132, 2-(2,6-dimethylpyridin-4-yl)-3-methyl-6-(1′,2′,3′,6′-tetrahydro-[2,4′-bipyridin]-5-yl)-1H-indole]
22.8 |  | 49.1 | Cc1cc(-c2[nH]c3cc(-c4ccc5nc([C@H]6CCCCN6)[nH]c5c4)ccc3c2C)cc(C)n1 [Example 164]
11.8 |  | 142 | Cc1cc(-c2[nH]c3cc(-c4ccc5c(c4)ncn5C4CCNCC4)ccc3c2C)cc(C)n1 [Example 148, 5-[2-(2,6-dimethyl-4-pyridyl)-3-methyl-1H-indol-6-yl]-1-(4-piperidyl)benzimidazole]
0.12 | 3.33 |  | CCc1c(-c2cc(OC)c3ncnn3c2)[nH]c2cc(-c3ccc(N4CCN(C(=O)C56CC(CN5)C6)CC4)nc3)ccc12 [Example 174]
8.3 |  | 13.5 | Cc1cc(-c2[nH]c3cc(-c4ccc(N5CC[C@@H](N)C5)nc4)ccc3c2C)cc(C)n1 [Example 31]
